Assay [1] has as its system Blumeria hordei. As to the kind of experiment: Antifungal activity against Blumeria graminis f. sp. hordei isolate W14 assessed as conidial germination at 10 mg/l after 48 hr (reference value: 47.3%). In kind it is functional.
Assay [2] relates to Hordeum vulgare. The assay can be described thus: Induction of resistance to Blumeria graminis f. sp. hordei isolate W14 infection in Hordeum vulgare cv. Edamai 9 (barley) assessed as upregulation of leaf-specific thionin gene using Contig1580_x_at as probe at 10 mg/l after 8 hr by microarray analysis relative to untreated control. The format is functional.
The test system of assay [3] is Hordeum vulgare. The assay can be described thus: Induction of systemic resistance to Blumeria graminis f. sp. hordei isolate W14 infection in Hordeum vulgare cv. Edamai 9 (barley) assessed as decrease in colonies on leaf at 10 mg/l up to 216 hr relative to untreated-control. In kind it is functional, organism-based.
The test system of assay [4] is Hordeum vulgare. As to the kind of experiment: Induction of resistance to Blumeria graminis f. sp. hordei isolate W14 infection in Hordeum vulgare cv. Edamai 9 (barley) assessed as downregulation of Bsi1 protein gene using HD04G07u_s_at as probe at 10 mg/l after 8 hr by microarray analysis relative to untreated control. In kind it is functional.
The subject of assay [5] is Hordeum vulgare. The assay can be described thus: Induction of resistance to Blumeria graminis f. sp. hordei isolate W14 infection in Hordeum vulgare cv. Edamai 9 (barley) assessed as upregulation of stress-induced gene using Contig3426_at as probe at 10 mg/l after 8 hr by microarray analysis relative to untreated control. In kind it is functional.
The subject of assay [6] is Hordeum vulgare. The assay can be described thus: Induction of resistance to Blumeria graminis f. sp. hordei isolate W14 infection in Hordeum vulgare cv. Edamai 9 (barley) assessed as downregulation of Peroxidase gene using HVSMEm0005P05r2_at as probe at 10 mg/l after 8 hr by microarray analysis relative to untreated control. The format is functional.
Assay [7] has as its system Hordeum vulgare. As to the kind of experiment: Induction of resistance to Blumeria graminis f. sp. hordei isolate W14 infection in Hordeum vulgare cv. Edamai 9 (barley) assessed as upregulation of leaf-specific thionin gene using Contig1567_x_at as probe at 10 mg/l after 8 hr by microarray analysis relative to untreated control. The format is functional.
Assay [8] deals with Hordeum vulgare. As to the kind of experiment: Induction of resistance to Blumeria graminis f. sp. hordei isolate W14 infection in Hordeum vulgare cv. Edamai 9 (barley) assessed as downregulation of Pathogenesis-related protein gene using Contig4054_s_at as probe at 10 mg/l after 8 hr by microarray analysis relative to untreated control. The format is functional.
The subject of assay [9] is Hordeum vulgare. The assay can be described thus: Induction of resistance to Blumeria graminis f. sp. hordei isolate W14 infection in Hordeum vulgare cv. Edamai 9 (barley) assessed as upregulation of leaf-specific thionin gene using Contig1567_x_at as probe at 10 mg/l after 8 hr by qRT-PCR analysis relative to untreated control. In kind it is functional.
Assay [10] deals with Hordeum vulgare. As to the kind of experiment: Induction of resistance to Blumeria graminis f. sp. hordei isolate W14 infection in Hordeum vulgare cv. Edamai 9 (barley) assessed as upregulation of Phytoene synthase E1 gene using Contig13305_at as probe at 10 mg/l after 8 hr by microarray analysis relative to untreated control. In kind it is functional.
In assay [11] the test system is Blumeria hordei. As to the kind of experiment: Antifungal activity against Blumeria graminis f. sp. hordei isolate W14 infected barley cv. Edamai 9 assessed as disease index at 10 mg/l after 15 days (reference value: 76.5%). In kind it is functional.
Assay [12] has as its system Hordeum vulgare. As to the kind of experiment: Induction of resistance to Blumeria graminis f. sp. hordei isolate W14 infection in Hordeum vulgare cv. Edamai 9 (barley) assessed as upregulation of leaf-specific thionin gene using Contig1570_s_at as probe at 10 mg/l after 8 hr by qRT-PCR analysis relative to untreated control. In kind it is functional. For orientation: In qPCR the cycle at which signal appears reflects the starting amount.

Assay [13] deals with Hordeum vulgare. The assay can be described thus: Induction of resistance to Blumeria graminis f. sp. hordei isolate W14 infection in Hordeum vulgare cv. Edamai 9 (barley) assessed as downregulation of Pathogenesis-related protein 4 gene using Contig2550_x_at as probe at 10 mg/l after 8 hr by microarray analysis relative to untreated control. The format is functional.
Assay [14] deals with Hordeum vulgare. As to the kind of experiment: Induction of resistance to Blumeria graminis f. sp. hordei isolate W14 infection in Hordeum vulgare cv. Edamai 9 (barley) assessed as upregulation of stress-induced gene using Contig3427_at as probe at 10 mg/l after 8 hr by microarray analysis relative to untreated control. The format is functional.
Assay [15] concerns Hordeum vulgare. The assay can be described thus: Induction of localised resistance to Blumeria graminis f. sp. hordei isolate W14 infection in Hordeum vulgare cv. Edamai 9 (barley) assessed as decrease in colonies on leaf at 10 mg/l up to 216 hr relative to untreated-control. In kind it is functional, organism-based.
Assay [16] concerns Hordeum vulgare. As to the kind of experiment: Induction of resistance to Blumeria graminis f. sp. hordei isolate W14 infection in Hordeum vulgare cv. Edamai 9 (barley) assessed as upregulation of Xyloglucan endotransglycosylase-like protein gene using Contig2669_at as probe at 10 mg/l after 8 hr by microarray analysis relative to untreated control. In kind it is functional.

For assay [17], the system named is Hordeum vulgare. As to the kind of experiment: Induction of resistance to Blumeria graminis f. sp. hordei isolate W14 infection in Hordeum vulgare cv. Edamai 9 (barley) assessed as upregulation of leaf-specific thionin gene using Contig1582_x_at as probe at 10 mg/l after 8 hr by microarray analysis relative to untreated control. The format is functional.
For assay [18], the system named is Blumeria hordei. As to the kind of experiment: Antifungal activity against Blumeria graminis f. sp. hordei isolate W14 infected barley cv. Edamai 9 assessed as conidial germination at 10 mg/l after 15 days (reference value: 92.4%). The format is functional.
Assay [19] relates to Hordeum vulgare. The assay can be described thus: Induction of resistance to Blumeria graminis f. sp. hordei isolate W14 infection in Hordeum vulgare cv. Edamai 9 (barley) assessed as upregulation of leaf-specific thionin gene using Contig1570_s_at as probe at 10 mg/l after 8 hr by microarray analysis relative to untreated control. In kind it is functional.
Assay [20] deals with Hordeum vulgare. The assay can be described thus: Induction of resistance to Blumeria graminis f. sp. hordei isolate W14 infection in Hordeum vulgare cv. Edamai 9 (barley) assessed as upregulation of leaf-specific thionin gene using Contig1576_at as probe at 10 mg/l after 8 hr by microarray analysis relative to untreated control. The format is functional.
Assay [21] has as its system Hordeum vulgare. The assay can be described thus: Induction of resistance to Blumeria graminis f. sp. hordei isolate W14 infection in Hordeum vulgare cv. Edamai 9 (barley) assessed as downregulation of Oxalate oxidase gene using Contig3017_at as probe at 10 mg/l after 8 hr by microarray analysis relative to untreated control. The format is functional.

Molecules are shown by their SMILES. The source made the active and inactive calls. No cut-off for these calls is given here.

Regarding `COc1cc(O)c2c(c1)C(=O)c1cc(C)cc(O)c1C2=O` [PHYSCION], the Activity with Blumeria hordei [1] amounted to 56.6%; with Blumeria hordei [18], 4.5%. Moreover, the “fold change (FC)” value with Hordeum vulgare [2] is on record as 4.74; with Hordeum vulgare [4], -2.77; in the assay on Hordeum vulgare [5], 3.04; in the assay on Hordeum vulgare [6], -2.96; in the assay on Hordeum vulgare [7], 19.91; with Hordeum vulgare [8], -2.94. The “fold change (FC)” value is recorded as 4.77 in the assay with Hordeum vulgare [9]; 2.09 in the assay with Hordeum vulgare [10]; 5.61 in the assay on Hordeum vulgare [12]; -2.34 in the assay on Hordeum vulgare [13]; 2.41 in the assay with Hordeum vulgare [14]; 2.44 in the assay with Hordeum vulgare [16]. Moreover, the “fold change (FC)” value in the assay with Hordeum vulgare [17] is 4.26; in the assay with Hordeum vulgare [19], 4.3; in the assay on Hordeum vulgare [20], 9.34; in the assay with Hordeum vulgare [21], -2.87. The outcome in the assay on Hordeum vulgare [3] was inactive. For the same compound, the PDI with Blumeria hordei [11] is recorded as 4.4%. For the same compound, the outcome in the assay on Hordeum vulgare [15] was Active.

For the origin of these results see ChEMBL document CHEMBL3044754, “Physcion, a natural anthraquinone derivative, enhances the gene expression of leaf-specific thionin of barley against Blumeria graminis” (2010).
